# Laboratory results reported in ChEMBL document CHEMBL3120064, “Synthesis and biological evaluation of baicalein derivatives as potent antitumor agents” (Bioorg Med Chem Lett, 2014).
# Test system: HepG2
# Assay: Antiproliferative activity against human HepG2 cells after 48 hrs by MTT assay
# Format: functional, cell-based
# Conditions: HepG2, 48 h
row,IC50,SMILES
1,2.2 µM,CCN(CC)CCCCOc1c(OCc2ccccc2)cc2oc(-c3ccccc3)cc(=O)c2c1O
2,15.1 µM,COc1cc2oc(-c3ccccc3)cc(=O)c2c(O)c1OCCCN1CCN(C)CC1
3,9.2 µM,COc1cc2oc(-c3ccccc3)cc(=O)c2c(O)c1OCCCN1CCOCC1
4,70.6 µM,O=c1cc(-c2ccccc2)oc2cc(O)c(OCCCN3CCCCC3)c(O)c12
5,2.4 µM,CN1CCN(CCCOc2c(OCc3ccccc3)cc3oc(-c4ccccc4)cc(=O)c3c2O)CC1
6,19.8 µM,COc1cc2oc(-c3ccccc3)cc(=O)c2c(O)c1OCCCCN1CCOCC1
7,> 100 µM,O=c1cc(-c2ccccc2)oc2cc(O)c(OCCCN3CCCC3)c(O)c12
8,4.9 µM,COc1cc2oc(-c3ccccc3)cc(=O)c2c(O)c1OCCCCN1CCCC1
9,75.8 µM,O=c1cc(-c2ccccc2)oc2cc(OCc3ccccc3)c(OCCCN3CCOCC3)c(O)c12
10,2.4 µM,O=c1cc(-c2ccccc2)oc2cc(OCc3ccccc3)c(OCCCCN3CCCCC3)c(O)c12
11,3.7 µM,CCN(CC)CCCOc1c(OC)cc2oc(-c3ccccc3)cc(=O)c2c1O
12,2.5 µM,CN1CCN(CCCCOc2c(OCc3ccccc3)cc3oc(-c4ccccc4)cc(=O)c3c2O)CC1
13,93.7 µM,CN1CCN(CCCCOc2c(O)cc3oc(-c4ccccc4)cc(=O)c3c2O)CC1
14,4.2 µM,O=c1cc(-c2ccccc2)oc2cc(OCc3ccccc3)c(OCCCN3CCCC3)c(O)c12
15,> 100 µM,O=c1cc(-c2ccccc2)oc2cc(O)c(OCCCCN3CCCCC3)c(O)c12

# Test system: A549
# Assay: Antiproliferative activity against human A549 cells after 48 hrs by MTT assay
# Format: functional, cell-based
# Conditions: A549, 48 h
row,IC50,SMILES
1,1.8 µM,CCN(CC)CCCCOc1c(OCc2ccccc2)cc2oc(-c3ccccc3)cc(=O)c2c1O
2,18 µM,COc1cc2oc(-c3ccccc3)cc(=O)c2c(O)c1OCCCN1CCN(C)CC1
3,14 µM,COc1cc2oc(-c3ccccc3)cc(=O)c2c(O)c1OCCCN1CCOCC1
4,> 100 µM,O=c1cc(-c2ccccc2)oc2cc(O)c(OCCCN3CCCCC3)c(O)c12
5,1.3 µM,CN1CCN(CCCOc2c(OCc3ccccc3)cc3oc(-c4ccccc4)cc(=O)c3c2O)CC1
6,25 µM,COc1cc2oc(-c3ccccc3)cc(=O)c2c(O)c1OCCCCN1CCOCC1
7,> 100 µM,O=c1cc(-c2ccccc2)oc2cc(O)c(OCCCN3CCCC3)c(O)c12
8,13 µM,COc1cc2oc(-c3ccccc3)cc(=O)c2c(O)c1OCCCCN1CCCC1
9,> 100 µM,O=c1cc(-c2ccccc2)oc2cc(OCc3ccccc3)c(OCCCN3CCOCC3)c(O)c12
10,1.9 µM,O=c1cc(-c2ccccc2)oc2cc(OCc3ccccc3)c(OCCCCN3CCCCC3)c(O)c12
11,4.9 µM,CCN(CC)CCCOc1c(OC)cc2oc(-c3ccccc3)cc(=O)c2c1O
12,4.4 µM,CN1CCN(CCCCOc2c(OCc3ccccc3)cc3oc(-c4ccccc4)cc(=O)c3c2O)CC1
13,> 100 µM,CN1CCN(CCCCOc2c(O)cc3oc(-c4ccccc4)cc(=O)c3c2O)CC1
14,1.4 µM,O=c1cc(-c2ccccc2)oc2cc(OCc3ccccc3)c(OCCCN3CCCC3)c(O)c12
15,75 µM,O=c1cc(-c2ccccc2)oc2cc(O)c(OCCCCN3CCCCC3)c(O)c12

# Test system: not listed separately
# Assay: Antiproliferative activity against human BCG823 cells after 48 hrs by MTT assay
# Format: functional, cell-based
# Conditions: BCG823, 48 h
row,SMILES,IC50
1,CCN(CC)CCCCOc1c(OCc2ccccc2)cc2oc(-c3ccccc3)cc(=O)c2c1O,4.2 µM
2,COc1cc2oc(-c3ccccc3)cc(=O)c2c(O)c1OCCCN1CCN(C)CC1,31.3 µM
3,COc1cc2oc(-c3ccccc3)cc(=O)c2c(O)c1OCCCN1CCOCC1,43.1 µM
4,O=c1cc(-c2ccccc2)oc2cc(O)c(OCCCN3CCCCC3)c(O)c12,60.9 µM
5,CN1CCN(CCCOc2c(OCc3ccccc3)cc3oc(-c4ccccc4)cc(=O)c3c2O)CC1,4.1 µM
6,COc1cc2oc(-c3ccccc3)cc(=O)c2c(O)c1OCCCCN1CCOCC1,27.2 µM
7,O=c1cc(-c2ccccc2)oc2cc(O)c(OCCCN3CCCC3)c(O)c12,> 100 µM
8,COc1cc2oc(-c3ccccc3)cc(=O)c2c(O)c1OCCCCN1CCCC1,10.6 µM
9,O=c1cc(-c2ccccc2)oc2cc(OCc3ccccc3)c(OCCCN3CCOCC3)c(O)c12,51.4 µM
10,O=c1cc(-c2ccccc2)oc2cc(OCc3ccccc3)c(OCCCCN3CCCCC3)c(O)c12,3 µM
11,CCN(CC)CCCOc1c(OC)cc2oc(-c3ccccc3)cc(=O)c2c1O,5.7 µM
12,CN1CCN(CCCCOc2c(OCc3ccccc3)cc3oc(-c4ccccc4)cc(=O)c3c2O)CC1,7.2 µM
13,CN1CCN(CCCCOc2c(O)cc3oc(-c4ccccc4)cc(=O)c3c2O)CC1,82.9 µM
14,O=c1cc(-c2ccccc2)oc2cc(OCc3ccccc3)c(OCCCN3CCCC3)c(O)c12,> 100 µM
15,O=c1cc(-c2ccccc2)oc2cc(O)c(OCCCCN3CCCCC3)c(O)c12,52.7 µM
